Structures are written as SMILES.

For the first test, the system named is NCI-H1915. Nature of the test: relative viability (nuclei count vs DMSO), 5 days (fraction); higher = more cells survive. Conditions: first compound 0.2 µM. An outline of the steps:
(§1)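 Five library-drug doses in √10 steps were combined with a fixed anchor-drug dose, or a single drug was given alone, by pin tool to lung cancer cell lines in 1536-well plates the day after seeding. Nuclei were stained and counted after 5 days. Relative viability is the nuclei count in treated wells over that in vehicle wells, taken as the median of duplicate plates.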
Take `COCC1(CO)C(=O)C2CCN1CC2` (stereo unspecified) [PRIMA-1MET] + CS(=O)(=O)CCNCc1ccc(-c2ccc3ncnc(Nc4ccc(OCc5cccc(F)c5)c(Cl)c4)c3c2)o1 [Lapatinib] (partner 2 µM): the relative viability was found to be 1.07.
`COCC1(CO)C(=O)C2CCN1CC2` (stereo unspecified) [PRIMA-1MET] + C[C@]1(O)C[C@@H](c2nc(-c3ccc4ccc(-c5ccccc5)nc4c3)c3c(N)nccn32)C1 [Linsitinib] (partner 1 µM): the relative viability worked out at 1.26.
Turning to `COCC1(CO)C(=O)C2CCN1CC2` (stereo unspecified) [PRIMA-1MET] + CC(C)C[C@H](NC(=O)[C@H](Cc1ccccc1)NC(=O)c1cnccn1)B(O)O [Bortezomib] (partner 0.002 µM), the relative viability worked out at 1.07.
Consider `COCC1(CO)C(=O)C2CCN1CC2` (stereo unspecified) [PRIMA-1MET] + Cc1nc(NC(=O)N2CCC[C@H]2C(N)=O)sc1-c1ccnc(C(C)(C)C(F)(F)F)c1 [Alpelisib] (partner 2 µM), for which the relative viability is 1.15.

Still in this test, the particulars now being: first compound 0.6325 µM.
As for `COCC1(CO)C(=O)C2CCN1CC2` (stereo unspecified) [PRIMA-1MET] + CS(=O)(=O)CCNCc1ccc(-c2ccc3ncnc(Nc4ccc(OCc5cccc(F)c5)c(Cl)c4)c3c2)o1 [Lapatinib] (partner 2 µM), the relative viability stood at 0.845.
`COCC1(CO)C(=O)C2CCN1CC2` (stereo unspecified) [PRIMA-1MET] + C[C@]1(O)C[C@@H](c2nc(-c3ccc4ccc(-c5ccccc5)nc4c3)c3c(N)nccn32)C1 [Linsitinib] (partner 1 µM) returned a relative viability of 0.933.
The same measure, in the same setting: the figure for `COCC1(CO)C(=O)C2CCN1CC2` (stereo unspecified) [PRIMA-1MET] + CC(C)C[C@H](NC(=O)[C@H](Cc1ccccc1)NC(=O)c1cnccn1)B(O)O [Bortezomib] (partner 0.002 µM) is 0.695; for `COCC1(CO)C(=O)C2CCN1CC2` (stereo unspecified) [PRIMA-1MET] + Cc1nc(NC(=O)N2CCC[C@H]2C(N)=O)sc1-c1ccnc(C(C)(C)C(F)(F)F)c1 [Alpelisib] (partner 2 µM) it is 0.861.

The same test, now with this note: first compound 2 µM.
For the compound `COCC1(CO)C(=O)C2CCN1CC2` (stereo unspecified) [PRIMA-1MET] + CS(=O)(=O)CCNCc1ccc(-c2ccc3ncnc(Nc4ccc(OCc5cccc(F)c5)c(Cl)c4)c3c2)o1 [Lapatinib] (partner 2 µM), the relative viability came to 0.864.
Still for that read-out and setting: the figure for `COCC1(CO)C(=O)C2CCN1CC2` (stereo unspecified) [PRIMA-1MET] + C[C@]1(O)C[C@@H](c2nc(-c3ccc4ccc(-c5ccccc5)nc4c3)c3c(N)nccn32)C1 [Linsitinib] (partner 1 µM) is 1.03; for `COCC1(CO)C(=O)C2CCN1CC2` (stereo unspecified) [PRIMA-1MET] + CC(C)C[C@H](NC(=O)[C@H](Cc1ccccc1)NC(=O)c1cnccn1)B(O)O [Bortezomib] (partner 0.002 µM) it is 0.918; for `COCC1(CO)C(=O)C2CCN1CC2` (stereo unspecified) [PRIMA-1MET] + Cc1nc(NC(=O)N2CCC[C@H]2C(N)=O)sc1-c1ccnc(C(C)(C)C(F)(F)F)c1 [Alpelisib] (partner 2 µM) it is 0.853.

Staying with this test, now noted: first compound 6.325 µM.
Turning to `COCC1(CO)C(=O)C2CCN1CC2` (stereo unspecified) [PRIMA-1MET] + CS(=O)(=O)CCNCc1ccc(-c2ccc3ncnc(Nc4ccc(OCc5cccc(F)c5)c(Cl)c4)c3c2)o1 [Lapatinib] (partner 2 µM), the relative viability was determined as 0.925.
With `COCC1(CO)C(=O)C2CCN1CC2` (stereo unspecified) [PRIMA-1MET] + C[C@]1(O)C[C@@H](c2nc(-c3ccc4ccc(-c5ccccc5)nc4c3)c3c(N)nccn32)C1 [Linsitinib] (partner 1 µM), the relative viability was determined as 1.11.
`COCC1(CO)C(=O)C2CCN1CC2` (stereo unspecified) [PRIMA-1MET] + CC(C)C[C@H](NC(=O)[C@H](Cc1ccccc1)NC(=O)c1cnccn1)B(O)O [Bortezomib] (partner 0.002 µM) showed a relative viability of 0.764.
`COCC1(CO)C(=O)C2CCN1CC2` (stereo unspecified) [PRIMA-1MET] + Cc1nc(NC(=O)N2CCC[C@H]2C(N)=O)sc1-c1ccnc(C(C)(C)C(F)(F)F)c1 [Alpelisib] (partner 2 µM) returned a relative viability of 1.01.

The same test, now with this note: first compound 20 µM.
Consider `COCC1(CO)C(=O)C2CCN1CC2` (stereo unspecified) [PRIMA-1MET] + CS(=O)(=O)CCNCc1ccc(-c2ccc3ncnc(Nc4ccc(OCc5cccc(F)c5)c(Cl)c4)c3c2)o1 [Lapatinib] (partner 2 µM), for which the relative viability worked out at 0.958.
In turn, `COCC1(CO)C(=O)C2CCN1CC2` (stereo unspecified) [PRIMA-1MET] + C[C@]1(O)C[C@@H](c2nc(-c3ccc4ccc(-c5ccccc5)nc4c3)c3c(N)nccn32)C1 [Linsitinib] (partner 1 µM) registered a relative viability of 1.08.
Still for that read-out and setting: the figure for `COCC1(CO)C(=O)C2CCN1CC2` (stereo unspecified) [PRIMA-1MET] + CC(C)C[C@H](NC(=O)[C@H](Cc1ccccc1)NC(=O)c1cnccn1)B(O)O [Bortezomib] (partner 0.002 µM) is 0.956.
Take `COCC1(CO)C(=O)C2CCN1CC2` (stereo unspecified) [PRIMA-1MET] + Cc1nc(NC(=O)N2CCC[C@H]2C(N)=O)sc1-c1ccnc(C(C)(C)C(F)(F)F)c1 [Alpelisib] (partner 2 µM): the relative viability amounted to 0.974.

The test system of the next test is NCI-H838. The test is described as above. Conditions: first compound 0.2 µM. An outline of the steps:
as §1
Regarding `COCC1(CO)C(=O)C2CCN1CC2` (stereo unspecified) [PRIMA-1MET] + CS(=O)(=O)CCNCc1ccc(-c2ccc3ncnc(Nc4ccc(OCc5cccc(F)c5)c(Cl)c4)c3c2)o1 [Lapatinib] (partner 2 µM), the relative viability worked out at 1.23.
In the case of `COCC1(CO)C(=O)C2CCN1CC2` (stereo unspecified) [PRIMA-1MET] + C[C@]1(O)C[C@@H](c2nc(-c3ccc4ccc(-c5ccccc5)nc4c3)c3c(N)nccn32)C1 [Linsitinib] (partner 1 µM), the relative viability worked out at 1.21.
Consider `COCC1(CO)C(=O)C2CCN1CC2` (stereo unspecified) [PRIMA-1MET] + CC(C)C[C@H](NC(=O)[C@H](Cc1ccccc1)NC(=O)c1cnccn1)B(O)O [Bortezomib] (partner 0.002 µM), for which the relative viability stood at 0.9.
`COCC1(CO)C(=O)C2CCN1CC2` (stereo unspecified) [PRIMA-1MET] + Cc1nc(NC(=O)N2CCC[C@H]2C(N)=O)sc1-c1ccnc(C(C)(C)C(F)(F)F)c1 [Alpelisib] (partner 2 µM): the relative viability stood at 1.26.

The test is the same for the next values; noted with them: first compound 0.6325 µM.
On to `COCC1(CO)C(=O)C2CCN1CC2` (stereo unspecified) [PRIMA-1MET] + CS(=O)(=O)CCNCc1ccc(-c2ccc3ncnc(Nc4ccc(OCc5cccc(F)c5)c(Cl)c4)c3c2)o1 [Lapatinib] (partner 2 µM), for which the relative viability amounted to 0.913.
`COCC1(CO)C(=O)C2CCN1CC2` (stereo unspecified) [PRIMA-1MET] + C[C@]1(O)C[C@@H](c2nc(-c3ccc4ccc(-c5ccccc5)nc4c3)c3c(N)nccn32)C1 [Linsitinib] (partner 1 µM) yielded a relative viability of 1.02.

The values above are taken from the supplement of paper PMC10307832.
